In patent US12509453B2, “BRM/BRG1 inhibitors and uses thereof” (Foghorn Therapeutics Inc., priority 2019, dated 2025):

Key:
[1] = molecular target: T1, BRM (Homo sapiens, UniProt P51531); test: ATPase catalytic activity assay (ADP-Glo), BRM; type: biochemical; details: 30 nM BRM, 400 μM ATP; for IC50: 20 nM salmon sperm DNA, read-out: BRM IP50 (μM)*
T1 construct: made in house; host or cells: High Five insect cells
Experimental: (§1) The ATPase catalytic activity of BRM or BRG-1 was measured by the in vitro biochemical assay using ADP-Glo™ (Promega, V9102). The ADP-Glo™ kinase assay is performed in two steps once the reaction is complete. The first step is to deplete any unconsumed ATP in the reaction. The second step is to convert the reaction product ADP to ATP, which will be utilized by the luciferase to generate luminesce and be detected by a luminescence reader, such as Envision.
(§2) The assay reaction mixture (10 μL) contains 30 nM of BRM or BRG-1, 20 nM salmon sperm DNA (from Invitrogen, UltraPure™ Salmon Sperm DNA Solution, cat #15632011), and 400 μM of ATP in the ATPase assay buffer, which comprises of 20 mM Tris, pH 8, 20 mM MgCl2, 50 mM NaCl, 0.1% Tween-20, and 1 mM fresh DTT (Pierce™ DTT (Dithiothreitol), cat #20290). The reaction is initiated by the addition of the 2.5 μL ATPase solution to 2.5 μL ATP/DNA solution on low volume white Proxiplate-384 plus plate (PerkinElmer,cat #6008280) and incubates at room temperature for 1 hour. Then following addition of 5 μL of ADP-Glo™ Reagent provided in the kit, the reaction incubates at room temperature for 40 minutes. Then 10 μL of Kinase Detection Reagent provided in the kit is added to convert ADP to ATP, and the reaction incubates at room temperature for 60 minutes. Finally, luminescence measurement is collected with a plate-reading luminometer, such as Envision.
as §1, with “The” for “The ATPase catalytic activity of BRM or BRG-1 was measured by the in vitro biochemical assay using ADP-Glo™ (Promega, V9102). The”
as §2, with “BRG1,” for “BRG-1,”

[2] = molecular target: T2, BRG-1 (Homo sapiens, UniProt P51532); test: ATPase catalytic activity assay (ADP-Glo), BRG-1; type: biochemical; details: 30 nM BRG-1, 400 μM ATP; for IC50: 20 nM salmon sperm DNA, read-out: BRG1 IP50 (μM)*; for Emax: read-out: BRG1 Max % Inhibition
T2 construct: made in house; host or cells: High Five insect cells
Experimental: as §1, §2
as §1, with “The” for “The ATPase catalytic activity of BRM or BRG-1 was measured by the in vitro biochemical assay using ADP-Glo™ (Promega, V9102). The”
as §2, with “BRG1,” for “BRG-1,”

T2 sequence (P51532 whole entry): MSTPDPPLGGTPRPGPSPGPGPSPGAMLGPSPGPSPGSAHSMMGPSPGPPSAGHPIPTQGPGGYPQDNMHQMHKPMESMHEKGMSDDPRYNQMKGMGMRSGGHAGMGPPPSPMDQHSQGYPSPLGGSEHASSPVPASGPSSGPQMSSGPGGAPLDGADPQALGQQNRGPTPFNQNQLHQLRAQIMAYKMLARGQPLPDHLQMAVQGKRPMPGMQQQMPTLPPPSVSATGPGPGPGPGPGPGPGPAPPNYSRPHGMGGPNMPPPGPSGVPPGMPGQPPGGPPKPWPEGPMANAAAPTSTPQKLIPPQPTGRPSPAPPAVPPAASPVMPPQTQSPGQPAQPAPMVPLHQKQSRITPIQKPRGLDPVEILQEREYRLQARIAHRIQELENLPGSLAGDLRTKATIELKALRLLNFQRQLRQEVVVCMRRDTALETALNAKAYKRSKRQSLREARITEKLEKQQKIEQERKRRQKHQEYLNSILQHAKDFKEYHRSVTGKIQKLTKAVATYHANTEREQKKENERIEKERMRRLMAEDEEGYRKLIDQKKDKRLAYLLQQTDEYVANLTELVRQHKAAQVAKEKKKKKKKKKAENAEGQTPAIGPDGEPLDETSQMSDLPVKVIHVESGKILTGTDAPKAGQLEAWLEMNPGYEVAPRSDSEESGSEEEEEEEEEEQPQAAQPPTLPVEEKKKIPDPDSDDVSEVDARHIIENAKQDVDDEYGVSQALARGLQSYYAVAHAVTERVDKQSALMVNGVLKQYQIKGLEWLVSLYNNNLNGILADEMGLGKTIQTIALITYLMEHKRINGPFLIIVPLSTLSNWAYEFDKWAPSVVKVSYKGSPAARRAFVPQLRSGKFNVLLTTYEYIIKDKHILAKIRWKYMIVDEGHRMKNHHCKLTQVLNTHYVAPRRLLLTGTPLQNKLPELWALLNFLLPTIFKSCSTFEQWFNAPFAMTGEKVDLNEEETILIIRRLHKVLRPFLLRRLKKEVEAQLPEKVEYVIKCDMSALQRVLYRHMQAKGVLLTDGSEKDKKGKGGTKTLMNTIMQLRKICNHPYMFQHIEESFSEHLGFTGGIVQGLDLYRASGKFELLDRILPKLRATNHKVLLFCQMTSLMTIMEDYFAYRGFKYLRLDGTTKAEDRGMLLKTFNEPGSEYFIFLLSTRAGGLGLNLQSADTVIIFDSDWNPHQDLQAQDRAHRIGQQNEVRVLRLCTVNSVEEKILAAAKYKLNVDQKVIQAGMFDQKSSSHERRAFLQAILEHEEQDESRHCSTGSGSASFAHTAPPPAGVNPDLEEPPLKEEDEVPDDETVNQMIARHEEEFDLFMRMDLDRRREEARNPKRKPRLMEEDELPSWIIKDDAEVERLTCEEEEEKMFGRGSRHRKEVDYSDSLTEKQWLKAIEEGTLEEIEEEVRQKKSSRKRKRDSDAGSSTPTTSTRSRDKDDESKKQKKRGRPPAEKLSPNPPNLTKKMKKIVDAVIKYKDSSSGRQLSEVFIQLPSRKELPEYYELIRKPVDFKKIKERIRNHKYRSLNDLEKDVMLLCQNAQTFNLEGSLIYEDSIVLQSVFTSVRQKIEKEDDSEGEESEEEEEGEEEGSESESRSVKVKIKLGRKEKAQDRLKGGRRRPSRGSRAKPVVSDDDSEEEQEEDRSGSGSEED
T1 sequence (P51531 whole entry): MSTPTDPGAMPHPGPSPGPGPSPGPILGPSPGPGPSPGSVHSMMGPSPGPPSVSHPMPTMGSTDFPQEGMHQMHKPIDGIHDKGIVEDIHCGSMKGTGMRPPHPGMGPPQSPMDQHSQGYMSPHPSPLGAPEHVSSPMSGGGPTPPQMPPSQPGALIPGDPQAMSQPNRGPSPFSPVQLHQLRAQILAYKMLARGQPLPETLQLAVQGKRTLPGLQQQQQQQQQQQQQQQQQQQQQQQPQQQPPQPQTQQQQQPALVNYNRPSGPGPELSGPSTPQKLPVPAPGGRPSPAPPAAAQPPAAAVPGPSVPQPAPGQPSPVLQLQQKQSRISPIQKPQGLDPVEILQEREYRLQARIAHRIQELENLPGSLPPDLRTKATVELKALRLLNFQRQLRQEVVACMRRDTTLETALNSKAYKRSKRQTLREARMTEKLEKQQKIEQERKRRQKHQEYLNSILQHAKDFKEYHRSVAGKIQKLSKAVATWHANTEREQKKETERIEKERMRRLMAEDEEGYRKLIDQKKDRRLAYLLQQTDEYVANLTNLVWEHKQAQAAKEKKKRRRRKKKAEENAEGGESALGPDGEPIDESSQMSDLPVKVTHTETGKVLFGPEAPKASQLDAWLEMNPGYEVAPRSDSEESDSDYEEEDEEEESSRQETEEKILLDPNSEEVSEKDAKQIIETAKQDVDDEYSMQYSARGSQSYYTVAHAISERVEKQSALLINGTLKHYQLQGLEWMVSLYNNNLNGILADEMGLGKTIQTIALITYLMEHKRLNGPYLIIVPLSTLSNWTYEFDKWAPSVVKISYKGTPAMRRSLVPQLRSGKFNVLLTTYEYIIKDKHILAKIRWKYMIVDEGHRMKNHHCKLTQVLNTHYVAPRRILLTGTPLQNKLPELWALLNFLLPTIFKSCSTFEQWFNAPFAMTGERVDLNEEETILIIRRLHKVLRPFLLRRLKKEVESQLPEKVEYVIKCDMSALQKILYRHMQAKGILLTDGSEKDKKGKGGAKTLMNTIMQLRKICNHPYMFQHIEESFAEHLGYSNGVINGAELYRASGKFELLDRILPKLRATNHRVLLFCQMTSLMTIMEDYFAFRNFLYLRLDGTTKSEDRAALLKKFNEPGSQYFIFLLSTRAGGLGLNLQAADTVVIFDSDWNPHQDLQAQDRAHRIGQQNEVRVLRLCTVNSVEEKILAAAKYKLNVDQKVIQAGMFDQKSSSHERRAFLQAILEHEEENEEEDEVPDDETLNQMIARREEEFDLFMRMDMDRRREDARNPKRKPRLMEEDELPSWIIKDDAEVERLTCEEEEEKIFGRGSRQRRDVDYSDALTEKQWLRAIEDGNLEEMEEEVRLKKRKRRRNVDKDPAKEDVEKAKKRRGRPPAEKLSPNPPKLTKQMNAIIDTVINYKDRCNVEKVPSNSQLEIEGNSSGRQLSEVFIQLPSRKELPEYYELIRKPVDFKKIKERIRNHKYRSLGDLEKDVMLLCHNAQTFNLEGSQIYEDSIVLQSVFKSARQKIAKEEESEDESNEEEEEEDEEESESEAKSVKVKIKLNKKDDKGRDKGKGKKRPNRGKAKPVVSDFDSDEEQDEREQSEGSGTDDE

BRM Max % Inhibition [1] [%] | IC50 [1] [µM] | IC50 [2] [µM] | Emax [2] [%] | SMILES
>95 | < 0.1 | < 0.1 | > 80 | Cc1c(C(=O)NCC(=O)Nc2nc(-c3cccc(-c4ccncc4)c3)cs2)cn(S(C)(=O)=O)c1C [Compound 11, 4,5-dimethyl-1-(methylsulfonyl)-N-(2-oxo-2-((4-(3-(pyridin-4-yl)phenyl)thiazol-2-yl)amino)ethyl)-1H-pyrrole-3-carboxamide]
>95 | 0.1 to 1 | > 5 | < 30 | Cc1cc(-c2cccc(-c3csc(NC(=O)CNC(=O)c4cn(S(=O)(=O)C(C)C)c5c4CCCC5)n3)c2)cc(C)n1 [Compound 20, N-(2-((4-(3-(2,6-dimethylpyridin-4-yl)phenyl)thiazol-2-yl)amino)-2-oxoethyl)-1-(isopropylsulfonyl)-4,5,6,7-tetrahydro-1H-indole-3-carboxamide]
 | < 0.1 | < 0.1 |  | Cc1cc(C(=O)NCC(=O)Nc2nc(-c3cccc(-c4ccnc(N(C)CC(=O)O)c4)c3)cs2)cn1S(C)(=O)=O [Compound 45, N-methyl-N-(4-(3-(2-(2-(5-methyl-1-(methylsulfonyl)-1H-pyrrole-3-carboxamido)acetamido)thiazol-4-yl)phenyl)pyridin-2-yl)glycine]
>95 | < 0.1 | 0.1 to 1 | > 80 | Cc1cc(-c2cccc(-c3csc(NC(=O)CNC(=O)c4cn(S(C)(=O)=O)c5c4CCCC5)n3)c2)cc(C)n1 [Compound 35, N-(2-((4-(3-(2,6-dimethylpyridin-4-yl)phenyl)thiazol-2-yl)amino)-2-oxoethyl)-1-(methylsulfonyl)-4,5,6,7-tetrahydro-1H-indole-3-carboxamide]

Further lines, the compound ahead of its results:

SMILES | BRM Max % Inhibition [1] [%] | IC50 [1] [µM] | IC50 [2] [µM] | Emax [2] [%]
Cc1cc(-c2cccc(-c3csc(NC(=O)CNC(=O)c4cc(C)n(S(=O)(=O)C(C)C)c4)n3)c2)cc(C)n1 [Compound 7, N-(2-((4-(3-(2,6-dimethylpyridin-4-yl)phenyl)thiazol-2-yl)amino)-2-oxoethyl)-1-(isopropylsulfonyl)-5-methyl-1H-pyrrole-3-carboxamide] | >95 | < 0.1 | 0.1 to 1 | > 95
Cc1cn(S(C)(=O)=O)cc1C(=O)NCC(=O)Nc1nc(-c2cccc(-c3ccncc3)c2)cs1 [Compound 9, 4-methyl-1-(methylsulfonyl)-N-(2-oxo-2-((4-(3-(pyridin-4-yl)phenyl)thiazol-2-yl)amino)ethyl)-1H-pyrrole-3-carboxamide] | >80 | < 0.1 | < 0.1 | > 60
CC(C)S(=O)(=O)n1cc(C(=O)NCC(=O)Nc2nc(-c3cccc(-c4ccncc4)c3)cs2)c(Cl)c1Cl [Compound 30, 4,5-dichloro-1-isopropylsulfonyl-N-[2-oxo-2-[[4-[3-(4-pyridyl)phenyl]thiazol-2-yl]amino]ethyl]pyrrole-3-carboxamide] | >50 | < 0.1 | > 5 | < 30
CC(C)S(=O)(=O)n1cc(C(=O)NCC(=O)Nc2nc(-c3cccc(N4CCC(O)CC4)c3)cs2)cc1Cl [Compound 40, 5-chloro-N-(2-((4-(3-(4-hydroxypiperidin-1-yl)phenyl)thiazol-2-yl)amino)-2-oxoethyl)-1-(isopropylsulfonyl)-1H-pyrrole-3-carboxamide] | >80 | 0.1 to 1 | 1 to 5 | > 50
Cc1nccc(-c2cccc(-c3csc(NC(=O)CNC(=O)c4cc(Cl)n(S(=O)(=O)C(C)C)c4)n3)n2)n1 [Compound 24, 5-chloro-1-(isopropylsulfonyl)-N-(2-((4-(6-(2-methylpyrimidin-4-yl)pyridin-2-yl)thiazol-2-yl)amino)-2-oxoethyl)-1H-pyrrole-3-carboxamide] | >60 | 0.1 to 1 | > 5 | < 30
